# Assay results published in patent US12440457B2, “Methods of treating suicidality” (Seelos Therapeutics, Inc., priority 2020, dated 2025).
# Key:
# [1] = tested on: adults with major depressive disorder at imminent risk of suicide; test: Phase 2 study, overall preliminary outcome; format: in vivo, human; conditions: two subjects, first eight days
# Text: (§1) This study is currently underway.
# [2] = Pham et al. 2018; cited from earlier work
# [3] = tested on: adults with major depressive disorder at imminent risk of suicide; test: Phase 2 study, MADRS total score; format: in vivo, human
# Text: The Montgomery-Asberg Depression Rating Scale (MADRS) is a diagnostic questionnaire that can be used to measure the severity of a depressive episode in a subject. In some embodiments, the MADRS can be used to measure suicidal ideation. For example, the MADRS includes 10 items directed to the following: 1) apparent sadness (e.g., representing despondency, gloom and despair that is more than just ordinary transient low spirits that is reflected in speech, facial expression, and posture); 2) reported sadness (e.g., representing reports of depressed mood, regardless of whether it is reflected in appearance or not and can include low spirits, despondency or the feeling of being beyond help and without hope); 3) inner tension (e.g., representing feelings of ill-defined discomfort, edginess, inner turmoil, mental tension mounting to either panic, dread or anguish); 4) reduced sleep (e.g., representing the experience of reduced duration or depth of sleep compared to the subject's own normal pattern when well); 5) reduced appetite (e.g., representing the feeling of a loss of appetite compared with when-well); 6) concentration difficulties (e.g., representing difficulties in collecting one's thoughts mounting to an incapacitating lack of concentration); 7) lassitude (e.g., representing difficulty in getting started or slowness in initiating and performing everyday activities); 8) inability to feel (e.g., representing the subjective experience of reduced interest in the surroundings, or activities that normally give pleasure, and the ability to react with adequate emotion to circumstances or people is reduced); 9) pessimistic thoughts (e.g., representing thoughts of guilt, inferiority, self-reproach, sinfulness, remorse and ruin); and 10) suicidal thoughts (e.g., representing the feeling that life is not worth living, that a natural death would be welcome, suicidal thoughts, and preparations for suicide). Each item is rated from 0 to 6, with 0 reflecting that the subject is not at all as described by the item and 6 reflecting that the subject is extremely like what is described by the item. […] As another example, for suicidal thoughts, a score of 0 can indicate that the subject enjoys life or takes it as it comes; a score of 2 can indicate that the subject is weary of life and may have fleeting suicidal thoughts; a score of 4 can indicate that the subject feels he or she would probably be better off dead (e.g., suicidal thoughts are common, and suicide is considered as a possible solution, but without specific plans or intention); and a score of 6 can indicate that the subject has explicit plans for suicide when there is an opportunity (e.g., the subject has made active preparations for suicide). […]
# [4] = tested on: adults with major depressive disorder at imminent risk of suicide; test: Phase 2 study, CADSS dissociation
# [5] = tested on: adults with major depressive disorder at imminent risk of suicide; test: Phase 2 study, MADRS item 10 (suicidality); format: in vivo, human; conditions: baseline 5
# Text: The Montgomery-Asberg Depression Rating Scale (MADRS) is a diagnostic questionnaire that can be used to measure the severity of a depressive episode in a subject. In some embodiments, the MADRS can be used to measure suicidal ideation. […]
# [6] = Leung and Baillie 1986; cited from earlier work
# [7] = tested on: adults with major depressive disorder at imminent risk of suicide; test: Phase 2 study, S-STS CMCM risk of suicide at this time; format: in vivo, human
# Text: FIGS. 20A-20B are a table (FIG. 20A) and a graph (FIG. 20B) describing the STS CMCM (“risk of suicide at this time”) scores for Subject 1 and Subject 2 from Day 1 to Day 9 described in Example 3 of the study.
# (§2) The S-STS CMCM (version 01/01/19) is a clinician-rated outcome measure which assesses SIB on a standard 22-item scale, as well as multiple patient and clinician-rated items. The first 16 items are rated on a Likert-type scale ranging from “not at all” (0) to “extremely” (4), where select scoring (i.e., 4 specific items are scored based on the highest score on 2 of those items) yields a total score ranging from 0 to 52. The final 6 items are used only when the patient misses a visit and is unable to complete the scale; if that missed visit is due to attempted or completed suicide, the possible maximum score is 100. The CMCM also yields 5 different single-item global assessments: 1) subject-rated likelihood of a suicide attempt; 2) subject-rated treatment needed; 3) clinician global severity of suicidal impulses, thoughts, and behaviors; 4) clinician judgment of suicide risk at this time and level of management needed for suicidality; and 5) clinician judgment of subject's likelihood of making a suicide attempt or of dying by suicide in the next 7 days.
# (§3) The secondary endpoints will be the change from baseline at 24 hours, as well as at Day 16, in the following: • (1) S-STS total score • (2) MADRS total score at Day 16 (only) • (3) Clinical Global Impression (CGI) of Severity for SI/B (CGIS-SI/B) and Change in SI/B (CGIC-SI/B) • (4) Patient Global Impression (PGI) of Severity for SI/B (PGIS-SI/B) and Change in SI/B (PGIC-SI/B • (5) S-STS Clinician-Rated Global Severity of Suicidal Impulses, Thoughts, and Behaviors • (6) S-STS Clinician judgment of subject's risk of a suicide attempt or death by suicide at this time • (7) S-STS Clinician judgment of subject's likelihood (risk) of making a suicide attempt or of dying by suicide in the next 7 days • (8) S-STS Subject-rated global severity of suicidal impulses, thoughts, and behavior • (9) S-STS Subject-rated treatment needed score • (10) MADRS item 10 response rate (response ≤3) • (11) MADRS response (total score ≥50% reduction from baseline) • (12) MADRS remission (total score ≤12) Exploratory Endpoint:
# as §1
# [8] = tested on: adults with major depressive disorder at imminent risk of suicide; test: Phase 2 study, S-STS CMCM Risk of Suicide at Within the Next 7 Days; format: in vivo, human
# Text: FIGS. 21A-21B are a table (FIG. 21A) and a graph (FIG. 21B) describing the STS CMCM (“risk of suicide at within the next 7 day”) scores for Subject 1 and Subject 2 from Day 1 to Day 9 described in Example 3 of the study.
# as §2, §3, §1
# [9] = tested on: adults with major depressive disorder at imminent risk of suicide; test: Phase 2 study, S-STS CMCM total score; format: in vivo, human
# Text: The S-STS CMCM (version 01/01/19) is a clinician-rated outcome measure which assesses SIB on a standard 22-item scale, as well as multiple patient and clinician-rated items. The first 16 items are rated on a Likert-type scale ranging from “not at all” (0) to “extremely” (4), where select scoring (i.e., 4 specific items are scored based on the highest score on 2 of those items) yields a total score ranging from 0 to 52. The final 6 items are used only when the patient misses a visit and is unable to complete the scale; if that missed visit is due to attempted or completed suicide, the possible maximum score is 100. The CMCM also yields 5 different single-item global assessments: 1) subject-rated likelihood of a suicide attempt; 2) subject-rated treatment needed; 3) clinician global severity of suicidal impulses, thoughts, and behaviors; 4) clinician judgment of suicide risk at this time and level of management needed for suicidality; and 5) clinician judgment of subject's likelihood of making a suicide attempt or of dying by suicide in the next 7 days. […]
# [10] = Subject 2, 24 hours post-administration, baseline 7
smiles,measurement,setting,value
"CNC1(c2ccccc2Cl)CCCCC1=O (racemic) [intranasal racemic ketamine, racemic ketamine]","improvements in depression and suicidality, preliminary data",[1],"rapid, significant, and sustained improvements in depression and suicidality"
same,"sedation or dissociation, preliminary data",[1],no meaningful sedation or dissociation
same,antidepressant properties,[2],exhibit antidepressant properties
same,MADRS total score,"[3]; Subject 1, 24 hours post-administration, 90 mg IN plus SOC, baseline 35",8
same,MADRS total score,"[3]; Subject 2, 24 hours post-administration, 90 mg IN plus SOC, baseline 38",15
same,MADRS total score,"[3]; Subject 2, Day 8, after second dose on Day 4",16
same,reduction of MADRS total score,"[3]; both subjects, 24 hours post-administration",> 50%
same,CADSS score (dissociation),"[4]; Subject 1, all time points, clinical threshold score ≥4",zero
same,CADSS score (dissociation),"[4]; Subject 2, 40 minutes post-administration, clinical threshold score ≥4",2
same,CADSS score (dissociation),"[4]; Subject 2, 1 hour post-administration",zero
same,MADRS item 10 (suicidality) score (range 0-6),"[5]; Subject 1, 24 hours post-administration",0
same,MADRS item 10 (suicidality) score (range 0-6),"[5]; second subject (not given), 24 hours post-administration",0
same,movement during the anesthetic recovery phase,[6],increased movement
same,"S-STS CMCM score (range 0-9), risk of suicide at this time","[7]; Subject 1, 24 hours post-administration, baseline 7",3
same,"S-STS CMCM score (range 0-9), risk of suicide at this time","[7]; Subject 1, Day 9",2
same,"S-STS CMCM score (range 0-9), risk of suicide at this time",[7]; [10],3
same,"S-STS CMCM score (range 0-9), risk of suicide at this time","[7]; Subject 2, Day 9",zero
same,"S-STS CMCM score (range 0-9), risk of suicide at this time","[7]; both subjects, Day 8",2
same,S-STS CMCM Risk of Suicide at Within the Next 7 Days score (range 1-10),"[8]; Subject 1, 24 hours post-administration, baseline 5",2
same,S-STS CMCM Risk of Suicide at Within the Next 7 Days score (range 1-10),[8]; [10],1
same,S-STS CMCM Risk of Suicide at Within the Next 7 Days score (range 1-10),"[8]; the scores, Day 4",1
same,S-STS CMCM Risk of Suicide at Within the Next 7 Days score (range 1-10),"[8]; the scores, Day 8",0
same,S-STS CMCM score (range 0-52),"[9]; Subject 1, 24 hours post-administration, baseline 18",zero
same,S-STS CMCM score (range 0-52),"[9]; Subject 2, 24 hours post-administration, baseline 22",3
NC1(c2ccccc2Cl)CCCC(O)C1=O (centres unmarked) [6-hydroxynorketamine],antidepressant properties,[2],exhibit antidepressant properties
NC1(c2ccccc2Cl)CCCCC1=O (centres unmarked) [norketamine],movement during the anesthetic recovery phase,[6],increased movement
